In ChEMBL document CHEMBL1201862, “PubChem BioAssay data set” (2004):
The source made the active and inactive calls.

Assays:
[1] = target: T1, Carboxy-terminal domain RNA polymerase II polypeptide A small phosphatase 1 (Homo sapiens, UniProt Q9GZU7); experiment: CTDSP1 inhibitors, concentration-response, biochemical, absorbance readout, ultra-high-throughput screen actives (AID 540297); type: functional
T1 sequence (Q9GZU7 whole entry): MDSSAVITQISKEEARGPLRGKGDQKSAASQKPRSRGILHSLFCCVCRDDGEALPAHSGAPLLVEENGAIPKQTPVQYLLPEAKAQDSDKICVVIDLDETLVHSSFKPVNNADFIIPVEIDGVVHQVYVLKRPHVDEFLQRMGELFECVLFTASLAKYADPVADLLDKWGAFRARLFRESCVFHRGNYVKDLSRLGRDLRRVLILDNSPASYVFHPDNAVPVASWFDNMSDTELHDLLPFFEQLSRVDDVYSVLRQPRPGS

[2] = Trypanosoma cruzi growth suppression in host cells – NIH3T3 host cells, beta-gal luminescence, confirmation (AID 2044); type: functional, cell-based;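 also: intracellular parasites grown in NIH/3T3 mouse fibroblasts as host cells; luminescent beta-galactosidase reporter signal from transgenic T. cruzi replicating inside host cells; inhibitors lower the luminescence signal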
[3] = microbe, parasite or virus in culture; type: functional; details: Mycobacterium tuberculosis
[4] = NIH3T3 cell viability loss – ATP luminescence, mouse fibroblasts, counter-screen, dose response (AID 2010); type: functional, cell-based;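 also: cells exposed to compound for about 90 hours before reading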
[5] = target: T2, Polyadenylate-binding protein 1 (Homo sapiens, UniProt P11940); experiment: MLLE binding blockers, Cy5 peptide tracer – biochemical, fluorescence polarization, Cy5-PAM2 peptide, secondary, miRNA deadenylation inhibitor project, dose response (AID 602260); type: functional; details: read-out: IC50_Mean
T2 sequence (P11940 whole entry, the tested form may be a part): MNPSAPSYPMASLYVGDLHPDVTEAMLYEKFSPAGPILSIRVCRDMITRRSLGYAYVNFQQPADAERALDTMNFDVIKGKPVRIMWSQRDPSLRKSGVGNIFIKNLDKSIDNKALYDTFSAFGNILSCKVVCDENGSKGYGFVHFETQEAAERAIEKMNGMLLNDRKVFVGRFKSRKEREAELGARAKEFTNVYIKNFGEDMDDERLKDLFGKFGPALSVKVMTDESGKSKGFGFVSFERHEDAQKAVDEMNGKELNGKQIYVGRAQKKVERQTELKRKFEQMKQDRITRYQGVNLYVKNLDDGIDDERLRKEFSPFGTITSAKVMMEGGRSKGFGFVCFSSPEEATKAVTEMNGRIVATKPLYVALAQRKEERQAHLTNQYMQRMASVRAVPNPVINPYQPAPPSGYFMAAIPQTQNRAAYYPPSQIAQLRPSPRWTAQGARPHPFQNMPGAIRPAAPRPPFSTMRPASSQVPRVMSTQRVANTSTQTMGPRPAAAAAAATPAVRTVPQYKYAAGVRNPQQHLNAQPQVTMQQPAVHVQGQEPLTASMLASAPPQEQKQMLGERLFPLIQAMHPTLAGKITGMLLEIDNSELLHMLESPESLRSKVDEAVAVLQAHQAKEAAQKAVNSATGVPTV

[6] = target: T2, Polyadenylate-binding protein 1; experiment: MLLE domain peptide-binding blockers, IC50 – biochemical, fluorescence polarization, FITC-PAM2 peptide, dose response (AID 602259); type: functional; details: read-out: IC50_Mean
INS1 = experiment: INS-1E survival protection against cytokine death – cell-based, luminescence, retest, dose response (AID 449756); type: functional; details: Rattus norvegicus;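 also: cell death triggered by IL-1 beta plus TNF-alpha plus IFN-gamma mixture; protective hits raise ATP signal compared with cytokine alone wells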
[7] = reduction of Shn3 3'UTR-driven luciferase in osteoblasts – cell-based, Clone20 osteoblasts, firefly luciferase, cherry-picked, dose response (AID 624132); type: functional;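 also: firefly luciferase luminescence from reporter carrying the Shn3 3'UTR in osteoblasts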
[8] = loss of viability in HepG2 cells – cell-based, CellTiter-Glo, cherry-picked, cytotoxicity control for Shn3 inhibitor project, dose response (AID 624134); type: functional
cells [9] = type: functional, cell-based
cells [10] = type: functional, cell-based; remark: listed apart in the source
[11] = target: T3, High affinity choline transporter 1 (Homo sapiens, UniProt Q9GZV3); experiment: human choline transporter blockers, potency – cell-based, 5-point CRC, membrane potential dye, dose response (AID 504840); type: functional
T3 sequence (Q9GZV3 whole entry): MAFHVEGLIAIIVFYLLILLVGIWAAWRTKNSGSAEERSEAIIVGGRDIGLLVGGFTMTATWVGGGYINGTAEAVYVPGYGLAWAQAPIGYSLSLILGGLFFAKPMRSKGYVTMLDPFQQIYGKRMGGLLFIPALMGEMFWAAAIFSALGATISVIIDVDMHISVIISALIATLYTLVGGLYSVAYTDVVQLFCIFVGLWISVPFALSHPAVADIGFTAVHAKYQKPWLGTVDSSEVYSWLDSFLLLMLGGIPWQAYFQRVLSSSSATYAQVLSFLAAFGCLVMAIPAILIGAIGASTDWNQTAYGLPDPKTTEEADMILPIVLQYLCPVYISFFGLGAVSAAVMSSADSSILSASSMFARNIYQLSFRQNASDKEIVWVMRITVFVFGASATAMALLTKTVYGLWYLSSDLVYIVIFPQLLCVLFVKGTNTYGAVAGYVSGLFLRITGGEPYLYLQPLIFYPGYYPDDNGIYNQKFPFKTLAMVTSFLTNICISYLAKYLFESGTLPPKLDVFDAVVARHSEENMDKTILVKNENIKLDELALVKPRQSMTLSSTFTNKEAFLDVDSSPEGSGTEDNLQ

[12] = target: T4, Corticotropin-releasing factor receptor 2/Corticotropin-releasing factor-binding protein (Homo sapiens, UniProt P24387+Q13324); experiment: activators of CRF receptor 2 with binding protein – uHTS hits, confirmation (AID 602473); type: functional; details: read-out: EC50_Mean
T4 sequence (Q13324 whole entry): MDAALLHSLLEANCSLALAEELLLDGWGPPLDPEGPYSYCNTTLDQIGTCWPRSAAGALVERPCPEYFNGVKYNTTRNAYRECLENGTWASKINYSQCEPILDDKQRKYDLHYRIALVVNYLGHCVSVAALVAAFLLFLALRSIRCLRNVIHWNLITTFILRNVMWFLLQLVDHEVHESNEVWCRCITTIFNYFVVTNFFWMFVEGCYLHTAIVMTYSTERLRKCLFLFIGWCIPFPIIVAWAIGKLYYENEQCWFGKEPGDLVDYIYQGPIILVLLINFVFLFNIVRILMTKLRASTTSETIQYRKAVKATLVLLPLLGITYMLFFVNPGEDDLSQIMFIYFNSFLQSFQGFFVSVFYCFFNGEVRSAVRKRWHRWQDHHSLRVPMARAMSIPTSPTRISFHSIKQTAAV
T4 sequence (P24387 whole entry): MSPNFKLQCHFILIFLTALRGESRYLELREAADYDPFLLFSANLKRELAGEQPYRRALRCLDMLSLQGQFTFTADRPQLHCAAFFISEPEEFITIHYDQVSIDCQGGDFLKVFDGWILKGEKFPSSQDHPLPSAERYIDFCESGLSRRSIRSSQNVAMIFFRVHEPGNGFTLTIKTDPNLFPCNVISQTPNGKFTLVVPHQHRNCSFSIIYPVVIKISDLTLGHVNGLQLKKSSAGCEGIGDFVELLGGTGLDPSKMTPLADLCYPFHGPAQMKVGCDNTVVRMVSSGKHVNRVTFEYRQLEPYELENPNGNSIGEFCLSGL

[13] = non-specific 3'UTR reporter inhibition in Clone20-Shn3RL – cell-based, Renilla luciferase, cherry-picked, counter-screen for Shn3 inhibitor project, dose response (AID 624133); type: functional
[14] = blockers of HIV-1 envelope-mediated cell-cell fusion – cherry-pick, dose response (AID 652057); type: functional, cell-based
[15] = blockers of HIV-1 ZM109 envelope-driven cell-cell fusion – HeLa effector, CEM target cells, luciferase, cherry-pick, dose response (AID 652058); type: functional, cell-based;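 also: luciferase signal from HIV-1 Env mediated cell-cell fusion of effector and target cells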
[16] = HIV-1 AD8 envelope cell-cell fusion blockers – cherry-pick, dose response (AID 652062); type: functional, cell-based;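 also: luciferase signal from cell-cell fusion driven by HIV-1 clade B AD8 Env; potency is for inhibitors of fusion seen as a drop in luminescence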

## COc1ccc(NC(=O)NNC(=O)c2ccc(-c3ccccc3)cc2)cc1
[1]
  IC50: 4.6 µM (active)

## COc1cc2ccccc2cc1C(=O)Nc1ccc(Cc2ccncc2)cc1
[2]
  EC50: 1.99 µM (active)
[3]
  CC50: 22 µM (active)
[4]
  EC50: 8.08 µM (active)

## CN1CCN(C(=S)NC(=O)c2ccc(S(=O)(=O)N3CCOCC3)cc2)CC1
[5]
  IC50: > 66 µM (inactive)
[6]
  IC50: > 66 µM (inactive)

## CCOc1cc(C)c(S(=O)(=O)Nc2ccc3c[nH]nc3c2)cc1C
INS1
  AC50: 4.13 µM (active)
[7]
  AC50: 4.89 µM (active)
[8]
  AC50: 36 µM (active)

## Cc1snc(SCC(=O)NN=C(N)COc2cccc(C(F)(F)F)c2)c1C#N
Cells [9]
  EC50: > 350 µM (not active)
Cells [10]
  EC50: > 350 µM (not active)

## CCCCn1c(NCc2ccc3c(c2)OCO3)nc2ccccc21
[3]
  CC50: 39.6 µM (active)

## Nc1ccc2cccc(O)c2c1
[1]
  IC50: 4.61 µM (active)

## O=C(Nc1cccc(S(=O)(=O)NC2=NCCC2)c1)c1cc(Cl)ccc1[N+](=O)[O-]
[11]
  IC50: 11.8 µM (active)

## COc1cc(OC)cc(N(C(=O)CNC(=O)c2cccs2)C(C(=O)NCC2CCCO2)c2ccc(OC)c(OC)c2)c1 (configuration not stated)
[12]
  EC50: > 53 µM (inactive)

## COc1cccc(CNc2nc(NCC3CC3)nc3ccsc23)c1
[7]
  AC50: 5.86 µM (active)
[8]
  AC50: 43 µM (active)
[13]
  AC50: 11.2 µM (active)

## C[C@@H]1CN([C@@H](C)CO)C(=O)c2cccc(NS(=O)(=O)c3ccccc3)c2O[C@@H]1CN(C)Cc1ccc(Cl)c(Cl)c1
[14]
  AC50: 2.93 µM (active)
[15]
  AC50: 4.27 µM (active)
[16]
  AC50: 3.86 µM (active)

## O=C(C[C@H]1C[C@@H]2c3cc(NS(=O)(=O)c4ccc(F)cc4)ccc3O[C@@H]2[C@H](CO)O1)NCc1ccc(Cl)cc1
[14]
  AC50: 1.72 µM (active)
[15]
  AC50: 5.21 µM (active)
[16]
  AC50: 4.14 µM (active)

## C=C[C@]1(C)C=C2C(=O)[C@@]3(O)OC(=O)[C@@]4(CCCC(C)(C)[C@H]34)[C@@]2(O)CC1 [SPHAEROPSIDIN A]
[7]
  AC50: 4.98 µM (active)
[8]
  AC50: 12 µM (active)
[13]
  AC50: 4.85 µM (active)
